Reference: patent US6461997B1, “Triazole sulfones having herbicidal activity” (Monsanto Technology LLC, priority 1999, dated 2002)

Legend:
[1] = test system: CHEAL (common lambsquarters); assay: Pre-emergence herbicidal activity, warm season; assay type: in vivo, Chenopodium album; details: GR80 = lowest tested rate (300, 100, 30, 10 g/ha) with 80% or greater inhibition; approx. 14 days after treating; 30/21° C.
In short: (§1)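 GR80 values derive from percent inhibition relative to untreated plants, read roughly 14 days after sowing and pre-emergence soil-surface treatment (compound in 50:50 acetone/water; rates typically 10, 30, 100, 300 g/ha). Warm-season weeds grew at 30/21° C day/night, cool-season ones at 18/13° C; an asterisk marks activity without reaching 80% at the highest rate.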

CONAR (field bindweed) = assay: Pre-emergence herbicidal activity, warm season; assay type: in vivo, Convolvulus arvensis; details: GR80 = lowest tested rate (300, 100, 30, 10 g/ha) with 80% or greater inhibition; approx. 14 days after treating; 30/21° C.
Description: (§2) Tables 5 to 8 summarize results of tests conducted as described below to determine the pre-emergence herbicidal activity, in the form of a GR80 value, of illustrative compounds of this invention. […] Compounds of the invention were typically applied at rates of 300, 100, 30, and 10 g/ha. Where herbicidal activity was evident but 80% inhibition was not achieved at the highest rate tested, an asterisk (*) is shown in the following tables.
(§3) The pre-emergence tests were conducted by the following procedure. Topsoil was sieved to pass through a 1.27 cm screen. Fertilizer was added to the topsoil and the mixture was then sterilized by heating. The topsoil mixture was placed in a pot and compacted to a depth of 1.0 to 1.25 cm from the top of the pot. Seeds of each of several monocotyledonous and dicotyledonous annual plant species were placed on top of the soil. Additional soil was subsequently placed over the seeds to level-fill the pot. A known amount of each test compound dissolved or suspended in an appropriate organic solvent was diluted with a 50:50 mix of acetone and water and applied to the surface of the soil. After treatment the plants were placed in a greenhouse where they received 0.64 cm of overhead irrigation. All subsequent watering consisted of a light overhead mist and/or subirrigation as needed for germination and growth. Tables 5 and 6 below relate to warm season plant species which were placed after pre-emergence treatment in a greenhouse with a 30/21° C. day/night temperature regime. Tables 7 and 8 below relates to cool season plant species placed after pre-emergence treatment in a greenhouse or growth chamber with an 18/13° C. day/night temperature regime.
(§4) Approximately 14 days after planting and treating, the plants were observed and herbicidal efficacy recorded as percent inhibition by comparison with untreated plants.
(§5) The plant species usually regarded as weeds which were utilized in the tests are identified in the tables below according to the following legend, in which “d” indicates a dicotyledonous species and “m” a monocotyledonous species. All monocotyledonous species included in the tests herein are grasses.

POROL (common purslane) = assay: Pre-emergence herbicidal activity, warm season; assay type: in vivo, Portulaca oleracea; details: GR80 = lowest tested rate (300, 100, 30, 10 g/ha) with 80% or greater inhibition; approx. 14 days after treating; 30/21° C.
In short: as §1

[2] = test system: BRAPP (broadleaf signalgrass); assay: Pre-emergence herbicidal activity, warm season; assay type: in vivo, Brachiaria platyphylla; details: GR80 = lowest tested rate (300, 100, 30, 10 g/ha) with 80% or greater inhibition; approx. 14 days after treating; 30/21° C.
In short: (§6)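 Seeds sown in sterilised fertilised topsoil received surface-applied compound in 50:50 acetone/water, typically at 300, 100, 30 and 10 g/ha, then greenhouse-grown at 30/21° C (warm-season species) or 18/13° C (cool-season species). Percent inhibition versus untreated plants was scored at about 14 days, giving GR80; an asterisk marks activity short of 80% at the top rate.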

[3] = test system: GALAP (catchweed bedstraw); assay: Pre-emergence herbicidal activity, cool season; assay type: in vivo, Galium aparine; details: lowest tested rate with 80% or greater inhibition; rates 300, 100, 30, 10 g/ha; about 14 days
In short: as §1

POLCO (wild buckwheat) = assay: Pre-emergence herbicidal activity, cool season; assay type: in vivo, Polygonum convolvulus; details: lowest tested rate with 80% or greater inhibition; rates 300, 100, 30, 10 g/ha; about 14 days
In short: (§7)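 Pre-emergence soil-surface spray; rates 300/100/30/10 g/ha; acetone:water 50:50 diluent. Warm-season species (PANMI, DIGSA) grown at 30/21 °C, cool-season species (ALOMY, POLCO) at 18/13 °C. Inhibition scored ~14 d after treatment versus untreated controls → GR80.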

SINAR (wild mustard) = assay: Pre-emergence herbicidal activity, cool season; assay type: in vivo, Sinapis arvensis; details: lowest tested rate with 80% or greater inhibition; rates 300, 100, 30, 10 g/ha; about 14 days
In short: as §1

[4] = test system: VERPE (creeping speedwell); assay: Pre-emergence herbicidal activity, cool season; assay type: in vivo, Veronica persicaria; details: lowest tested rate with 80% or greater inhibition; rates 300, 100, 30, 10 g/ha; about 14 days
In short: as §1

SASKR (russian thistle) = assay: Pre-emergence herbicidal activity, cool season; assay type: in vivo, Salsola kali; details: lowest tested rate with 80% or greater inhibition; rates 300, 100, 30, 10 g/ha; about 14 days
In short: as §1

STEME (common chickweed) = assay: Pre-emergence herbicidal activity, cool season; assay type: in vivo, Stellaria media; details: lowest tested rate with 80% or greater inhibition; rates 300, 100, 30, 10 g/ha; about 14 days
In short: as §1

[5] = test system: LAMPU (purple deadnettle); assay: Pre-emergence herbicidal activity, cool season; assay type: in vivo, Lamium purpureum; details: lowest tested rate with 80% or greater inhibition; rates 300, 100, 30, 10 g/ha; about 14 days
In short: as §1

SOLNI (black nightshade) = assay: Pre-emergence herbicidal activity, warm season; assay type: in vivo, Solanum nigrum; details: GR80 = lowest tested rate (300, 100, 30, 10 g/ha) with 80% or greater inhibition; approx. 14 days after treating; 30/21° C.
In short: as §1

ECHCG (barnyardgrass) = assay: Pre-emergence herbicidal activity, warm season; assay type: in vivo, Echinochloa crus-galli; details: GR80 = lowest tested rate (300, 100, 30, 10 g/ha) with 80% or greater inhibition; approx. 14 days after treating; 30/21° C.
In short: as §6

[6] = test system: PANMI (wild proso millet); assay: Pre-emergence herbicidal activity, warm season; assay type: in vivo, Panicum miliaceum; details: GR80 = lowest tested rate (300, 100, 30, 10 g/ha) with 80% or greater inhibition; approx. 14 days after treating; 30/21° C.
In short: as §7

[7] = test system: SORHA (johnsongrass (seedling)); assay: Pre-emergence herbicidal activity, warm season; assay type: in vivo, Sorghum halepense; details: GR80 = lowest tested rate (300, 100, 30, 10 g/ha) with 80% or greater inhibition; approx. 14 days after treating; 30/21° C.
In short: as §6

SETFA (giant foxtail) = assay: Pre-emergence herbicidal activity, warm season; assay type: in vivo, Setaria faberi; details: GR80 = lowest tested rate (300, 100, 30, 10 g/ha) with 80% or greater inhibition; approx. 14 days after treating; 30/21° C.
In short: as §6

PANDI (fall panicum) = assay: Pre-emergence herbicidal activity, warm season; assay type: in vivo, Panicum dichotomiflorum; details: GR80 = lowest tested rate (300, 100, 30, 10 g/ha) with 80% or greater inhibition; approx. 14 days after treating; 30/21° C.
Description: as §2, §3, §4, §5

ALOMY (blackgrass) = assay: Pre-emergence herbicidal activity, cool season; assay type: in vivo, Alopecurus myosuroides; details: GR80 = lowest tested rate (300, 100, 30, 10 g/ha) with 80% or greater inhibition; approx. 14 days after treating; 18/13° C.
In short: as §7

SETVI (green foxtail) = assay: Pre-emergence herbicidal activity, cool season; assay type: in vivo, Setaria viridis; details: GR80 = lowest tested rate (300, 100, 30, 10 g/ha) with 80% or greater inhibition; approx. 14 days after treating; 18/13° C.
In short: as §1

LOLMG (annual ryegrass) = assay: Pre-emergence herbicidal activity, cool season; assay type: in vivo, Lolium multiflorum; details: GR80 = lowest tested rate (300, 100, 30, 10 g/ha) with 80% or greater inhibition; approx. 14 days after treating; 18/13° C.
In short: as §1

[8] = test system: AGSST (creeping bentgrass); assay: Pre-emergence herbicidal activity, cool season; assay type: in vivo, Agrostis stolonifera; details: GR80 = lowest tested rate (300, 100, 30, 10 g/ha) with 80% or greater inhibition; approx. 14 days after treating; 18/13° C.
In short: as §1

SMILES	Pre-emergence activity (GR80) CHEAL [1]	Pre-emergence activity (GR80) CONAR (CONAR (field bindweed))	Pre-emergence activity (GR80) POROL (POROL (common purslane))	Pre-emergence activity (GR80) BRAPP [2]	Pre-emergence activity GR80, GALAP [3]	Pre-emergence activity GR80, POLCO (POLCO (wild buckwheat))	Pre-emergence activity GR80, SINAR (SINAR (wild mustard))	Pre-emergence activity GR80, VERPE [4]	Pre-emergence activity GR80, SASKR (SASKR (russian thistle))	Pre-emergence activity GR80, STEME (STEME (common chickweed))	Pre-emergence activity GR80, LAMPU [5]	also measured
O=C(N1CCCC1)n1cnc(S(=O)(=O)C(F)F)n1 [Example 24]	300 g/ha	300 g/ha	100 g/ha	100 g/ha	[empty]	[empty]	[empty]	[empty]	[empty]	[empty]	[empty]	
CCSC(F)(F)S(=O)(=O)c1ncn(C(=O)N2CCCC2)n1 [Example 47]	300 g/ha	300 g/ha	300 g/ha	300 g/ha	300 g/ha	[empty]	300 g/ha	10 g/ha	100 g/ha	30 g/ha	30 g/ha	Pre-emergence activity (GR80) SOLNI (SOLNI (black nightshade)): 300 g/ha; Pre-emergence activity (GR80) ECHCG (ECHCG (barnyardgrass)): 300 g/ha; Pre-emergence activity (GR80) PANMI [6]: 100 g/ha; Pre-emergence activity (GR80) SORHA [7]: 300 g/ha; Pre-emergence activity (GR80) SETFA (SETFA (giant foxtail)): 300 g/ha; Pre-emergence activity (GR80) PANDI (PANDI (fall panicum)): 300 g/ha; Pre-emergence activity (GR80) ALOMY (ALOMY (blackgrass)): 300 g/ha; Pre-emergence activity (GR80) SETVI (SETVI (green foxtail)): 300 g/ha; Pre-emergence activity (GR80) LOLMG (LOLMG (annual ryegrass)): 300 g/ha; Pre-emergence activity (GR80) AGSST [8]: 30 g/ha
